Legend:
Assay type in all cases: functional, cell-based
HeLa = assay: Antiproliferative activity against human HeLa cells assessed as reduction in cell viability measured after 24 hrs by MTT assay
MCF7 = assay: Antiproliferative activity against human MCF7 cells assessed as reduction in cell viability measured after 24 hrs by MTT assay; details: MCF7, 24 h
A2780S = assay: Antiproliferative activity against human A2780S cells assessed as reduction in cell viability measured after 24 hrs by MTT assay
NCI-H460 = assay: Antiproliferative activity against human NCI-H460 cells assessed as reduction in cell viability measured after 24 hrs by MTT assay; details: NCI-H460, 24 h
Raji = assay: Antiproliferative activity against human Raji cells assessed as reduction in cell viability measured after 24 hrs by MTT assay

Row | IC50 (HeLa) | IC50 (MCF7) | IC50 (A2780S) | IC50 (NCI-H460) | IC50 (Raji) | SMILES
1 | 43 nM | 39 nM | 60 nM | 47 nM | 32 nM | Clc1cccc(Oc2cccc(CNc3cc4c(cn3)[nH]c3ccccc34)c2)c1
2 | > 500 nM | > 500 nM | > 500 nM | > 500 nM | 500 nM | COc1ccccc1Oc1cccc(CNc2cc3c(cn2)[nH]c2ccccc23)c1
3 | 412 nM | 424 nM | > 500 nM | > 500 nM | 257 nM | c1csc(CNc2cc3c(cn2)[nH]c2ccccc23)c1
